Measurements as given in ChEMBL document CHEMBL3045852, “Synthesis of limonoid CDE fragments related to limonin and nimbinim” (2010).

Tested on: Spodoptera littoralis
Experiment: Antifeedant activity against Spodoptera littoralis
Type: functional

SMILES | AFI [%]
CC1(C)CC(=O)C[C@@]2(C)[C@H](c3ccsc3)C(=O)[C@H]3O[C@@]312 | 24
CC1(C)CC(=O)C[C@@]2(C)[C@H](c3ccoc3)C(=O)[C@H]3O[C@@]312 (relative stereo) | 45
